According to patent US20250025543A1, “DRUG FOR TREATING AND/OR PREVENTING CANCER AND USE THEREOF” (YUANBEN (ZHUHAI HENGQIN) BIOTECHNOLOGY CO., LTD., priority 2021, published 2025):
Where two headings read alike, the source gives them in different places.

Key:
[1] = test system: MC38 colon cancer
Protocol: Mice were weighed and randomly divided into groups of 6. MC38 colon cancer cells were diluted with an IMDM basal medium and inoculated in the right axilla of the C57BL/J mice according to 5×10^5 cells/mouse, with a total amount of 100 μL/mouse, for modeling. After the tumor diameter reached 5 mm, the mice were divided into 4 groups, namely a normal saline control group (NS group), an immune checkpoint inhibitor anti-PD-1 antibody injection group (PD-1 group), a recombinant MBP-MUC1-N fusion protein vaccine group (vaccine group), and a recombinant MBP-MUC1-N fusion protein vaccine formulation in combination with immune checkpoint inhibitor anti-PD1 antibody group (combination group). On day 3, day 7, day 10, day 14, and day 17 of tumor bearing, the recombinant MBP-MUC1-N fusion protein vaccine formulation was intramuscularly injected at a dose of 100 μg/mouse (diluted with NS, with a total amount of 200 μL) for immunization, and the immune checkpoint inhibitor anti-PD-1 antibody was intraperitoneally injected at a dose of 250 μg/mouse (diluted with NS, with a total amount of 500 tL/mouse).
(§1) The tumor graft inhibition rate and the tumor inhibition rate of the subcutaneous colon cancer in each group were calculated. The formula is as follows: [tumor inhibition rate=(mean tumor weight in control group −mean tumor weight in experimental group)/mean tumor weight in control group×100%]. [tumor cure rate=(number of mice without tumor/total number of mice)×100%].

[2] = test system: MC38 colon cancer; experiment: Vaccine prepared by three-step purification in treatment of MC38 colon cancer alone, compared with anti-PD-1 antibody (Example 3); assay type: in vivo, C57 BL/6J mice
[3] = test system: MC38 colon cancer; details: for Tumor cure rate: groups of 8; for Tumor inhibition rate: vs NS control group
Protocol: as §1
Mice were weighed and randomly divided into groups of 8. MC38 colon cancer cells were diluted with an IMDM basal medium and inoculated in the right axilla of the C57BL/J mice according to 5×10^5 cells/mouse, with a total amount of 100 μL/mouse, for modeling. After the tumor diameter reached 5 mm, the mice were divided into 4 groups, namely a normal saline control group (NS group), an oxaliplatin injection group (oxaliplatin group), a recombinant MBP-MUC1-N fusion protein vaccine group (vaccine group), and an oxaliplatin in combination with recombinant MBP-MUC1-N fusion protein vaccine formulation group (combination group). On day 3, day 7, day 10, day 14, and day 17 of tumor bearing, the recombinant MBP-MUC1-N fusion protein vaccine formulation was intramuscularly injected at a dose of 100 pg/mouse (diluted with NS, with a total amount of 200 μL) for immunization, and oxaliplatin was intraperitoneally injected at a dose of 3 mg/kg (diluted with 12% DMSO).

Compound	Tumor weight ([1]; MC38 tumor-bearing mice, vaccine 100 μg/mouse i.m., anti-PD-1 antibody 250 μg/mouse i.p., day 3, 7, 10, 14, 17 of tumor bearing) [g]	Tumor inhibition rate ([1]; from mean tumor weight vs NS control group) [%]	Tumor cure rate ([1]; number of mice without tumor/total number of mice, groups of 6) [%]	Tumor volume ([2]; 3 days after injection)	Tumor volume ([2]; 7 days after injection)	Tumor volume ([2]; 10 days after injection)	Tumor weight ([2]; MC38 tumor-bearing mice, vaccine 50 μg/mouse i.m., anti-PD-1 antibody 200 μg/mouse i.p., day 3, 7, 10, 14 of tumor bearing) [g]	Tumor cure rate ([2]; groups of 10) [%]	Tumor inhibition rate ([2]; vs PBS control group) [%]	Tumor cure rate [3] [%]	Tumor inhibition rate [3] [%]	Tumor volume ([3]; 5 days after injection) [cm^3]	Tumor volume ([3]; 7 days after injection) [cm^3]	Survival time of the mice suffering from the cancer ([3]; MC38 tumor-bearing mice, FIG. 3) [days]
Vaccine group: recombinant fusion protein of maltose-binding protein MBP and human mucin MUC1-N in tandem (SEQ ID NO. 3), as vaccine	1.96 ± 0.80	26	0	0.41+0.17 cm^3	1.11+0.83 cm^3	1.53+0.55 cm^3	1.53 ± 0.55	40	40	0	27	–	–	–
O=C1[O][Pt]2([NH][C@@H]3CCCC[C@H]3[NH]2)[O]C1=O [Oxaliplatin group, oxaliplatin]	–	–	–	–	–	–	–	–	–	12.5	50	0.46 ± 0.12	0.81 ± 0.20	29
